# Reference: ChEMBL document CHEMBL2163214, “Design, synthesis, calorimetry, and crystallographic analysis of 2-alkylaminoethyl-1,1-bisphosphonates as inhibitors of Trypanosoma cruzi farnesyl diphosphate synthase” (J Med Chem, 2012)
# Test: Binding affinity to Trypanosoma cruzi farnesyl diphosphate synthase at 250 uM at 28 degC by isothermal titration calorimetry
row,Structure (SMILES),Kd [nM]
1,CCCCCCNCC(P(=O)(O)O)P(=O)(O)O,400
2,CCCCCCCNCC(P(=O)(O)O)P(=O)(O)O,58.8
3,CCCNCC(P(=O)(O)O)P(=O)(O)O,25
4,CCCCCNCC(P(=O)(O)O)P(=O)(O)O,1030
